According to ChEMBL document CHEMBL1201862, “PubChem BioAssay data set” (2004):
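Five concentrations, 48 hours, 96-well plates. Abbreviation: GI50, concentration required for 50% inhibition of growth.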 The source made the active and inactive calls. Rule as the data show it: active = GI50 up to about 1.1 µM and inactive = higher.

How the values were obtained:
Assay in all cases: NCI anticancer screen, dose series, 48 h
RXF 631 = test system: RXF 631
IGROV-1 = test system: IGROV-1
M14 = test system: M14
SNB-75 = test system: SNB-75
RXF 393 = test system: RXF 393
786-0 = test system: 786-0
MOLT-4 = test system: MOLT-4
LXFL 529 = test system: LXFL 529
SK-MEL-2 = test system: SK-MEL-2
DMS-114 = test system: DMS-114
OVCAR-5 = test system: OVCAR-5
SK-MEL-5 = test system: SK-MEL-5
NCI-H522 = test system: NCI-H522
SW-620 = test system: SW-620
HOP-18 = test system: HOP-18
HCT-116 = test system: HCT-116
CAKI-1 = test system: CAKI-1
DMS-273 = test system: DMS-273
SN12C = test system: SN12C
COLO 205 = test system: COLO 205
CCRF-CEM = test system: CCRF-CEM
UACC-257 = test system: UACC-257
TK-10 = test system: TK-10
A498 = test system: A498
HOP-62 = test system: HOP-62
UACC-62 = test system: UACC-62
KM12 = test system: KM12
SNB-19 = test system: SNB-19
SF-268 = test system: SF-268
DLD-1 = test system: DLD-1
A549 = test system: A549
SF-295 = test system: SF-295
NCI-H460 = test system: NCI-H460
SK-MEL-28 = test system: SK-MEL-28
OVCAR-4 = test system: OVCAR-4
SF-539 = test system: SF-539
HCT-15 = test system: HCT-15
OVCAR-8 = test system: OVCAR-8
EKVX = test system: EKVX
KM-20L2 = test system: KM-20L2
U-251 = test system: U-251
UO-31 = test system: UO-31
SNB-78 = test system: SNB-78
NCI-H226 = test system: NCI-H226
NCI-H23 = test system: NCI-H23
RPMI-8226 = test system: RPMI-8226
SK-OV-3 = test system: SK-OV-3
ACHN = test system: ACHN
Malme-3M = test system: Malme-3M
OVCAR-3 = test system: OVCAR-3
K562 = test system: K562
HT-29 = test system: HT-29
HCC 2998 = test system: HCC 2998
HL-60 = test system: HL-60
M19-MEL = test system: M19-MEL
SR = test system: SR
HOP-92 = test system: HOP-92
LOX IMVI = test system: LOX IMVI

CC1=C(/C=C/C(C)=C/C=C/C(C)=C/C=C/C=C(C)/C=C/C=C(C)/C=C/C=C(C)/C=C/C=C(\C)C(=O)O)C(C)(C)CCC1
GI50 (RXF 631): > 100 µM (inactive)
GI50 (IGROV-1): > 100 µM (inactive)
GI50 (M14): > 100 µM (inactive)
GI50 (SNB-75): 69 µM (inactive)
GI50 (RXF 393): > 100 µM (inactive)
GI50 (786-0): > 100 µM (inactive)
GI50 (MOLT-4): > 100 µM (inactive)
GI50 (LXFL 529): > 100 µM (inactive)
GI50 (SK-MEL-2): > 100 µM (inactive)
GI50 (DMS-114): > 100 µM (inactive)
GI50 (OVCAR-5): > 100 µM (inactive)
GI50 (SK-MEL-5): > 100 µM (inactive)
GI50 (NCI-H522): > 100 µM (inactive)
GI50 (SW-620): > 100 µM (inactive)
GI50 (HOP-18): < 0.01 µM (active)
GI50 (HCT-116): > 100 µM (inactive)
GI50 (CAKI-1): > 100 µM (inactive)
GI50 (DMS-273): > 100 µM (inactive)
GI50 (SN12C): > 100 µM (inactive)
GI50 (COLO 205): > 100 µM (inactive)
GI50 (CCRF-CEM): > 100 µM (inactive)
GI50 (UACC-257): > 100 µM (inactive)
GI50 (TK-10): > 100 µM (inactive)
GI50 (A498): > 100 µM (inactive)
GI50 (HOP-62): > 100 µM (inactive)
GI50 (UACC-62): > 100 µM (inactive)
GI50 (KM12): > 100 µM (inactive)
GI50 (SNB-19): > 100 µM (inactive)
GI50 (SF-268): > 100 µM (inactive)
GI50 (DLD-1): > 100 µM (inactive)
GI50 (A549): > 100 µM (inactive)
GI50 (SF-295): > 100 µM (inactive)
GI50 (NCI-H460): > 100 µM (inactive)
GI50 (SK-MEL-28): > 100 µM (inactive)
GI50 (OVCAR-4): > 100 µM (inactive)
GI50 (SF-539): > 100 µM (inactive)
GI50 (HCT-15): > 100 µM
GI50 (OVCAR-8): > 100 µM (inactive)
GI50 (EKVX): > 100 µM (inactive)
GI50 (KM-20L2): > 100 µM (inactive)
GI50 (U-251): > 100 µM (inactive)
GI50 (UO-31): > 100 µM (inactive)
GI50 (SNB-78): > 100 µM (inactive)
GI50 (NCI-H226): > 100 µM (inactive)
GI50 (NCI-H23): > 100 µM (inactive)
GI50 (RPMI-8226): > 100 µM (inactive)
GI50 (SK-OV-3): > 100 µM (inactive)
GI50 (ACHN): > 100 µM (inactive)
GI50 (Malme-3M): > 100 µM (inactive)
GI50 (OVCAR-3): > 100 µM (inactive)
GI50 (K562): > 100 µM (inactive)
GI50 (HT-29): > 100 µM (inactive)

CCCCCC(=O)OC[n+]1ccc2c(C)c3[nH]c4ccccc4c3c(C)c2c1
GI50 (RXF 631): 0.408 µM (active)
GI50 (IGROV-1): 1.75 µM (inactive)
GI50 (M14): 1.42 µM (inactive)
GI50 (SNB-75): 1.49 µM (inactive)
GI50 (RXF 393): 1.23 µM (inactive)
GI50 (786-0): 0.405 µM (active)
GI50 (MOLT-4): 0.327 µM (active)
GI50 (LXFL 529): 1.02 µM (active)
GI50 (SK-MEL-2): 3.61 µM (inactive)
GI50 (DMS-114): 1.02 µM (active)
GI50 (OVCAR-5): 1.28 µM (inactive)
GI50 (SK-MEL-5): 1.51 µM (inactive)
GI50 (NCI-H522): 1.49 µM (inactive)
GI50 (HCC 2998): 0.787 µM (active)
GI50 (SW-620): 0.446 µM (active)
GI50 (HCT-116): 0.373 µM (active)
GI50 (CAKI-1): 1.82 µM (inactive)
GI50 (DMS-273): 0.141 µM (active)
GI50 (SN12C): 0.489 µM (active)
GI50 (HL-60): 2.99 µM (inactive)
GI50 (M19-MEL): 1.02 µM (active)
GI50 (UACC-257): 1.57 µM (inactive)
GI50 (TK-10): 3.08 µM (inactive)
GI50 (A498): 1.35 µM (inactive)
GI50 (HOP-62): 1.24 µM (inactive)
GI50 (UACC-62): 1.56 µM (inactive)
GI50 (SF-268): 0.796 µM (active)
GI50 (DLD-1): 0.45 µM (active)
GI50 (A549): 0.586 µM (active)
GI50 (SF-295): 0.946 µM (active)
GI50 (NCI-H460): 0.142 µM (active)
GI50 (SK-MEL-28): 1.43 µM (inactive)
GI50 (OVCAR-4): 1.1 µM (active)
GI50 (SF-539): 0.817 µM (active)
GI50 (HCT-15): 0.389 µM
GI50 (OVCAR-8): 0.474 µM (active)
GI50 (SR): 0.281 µM (active)
GI50 (EKVX): 0.628 µM (active)
GI50 (KM-20L2): 0.612 µM (active)
GI50 (U-251): 0.656 µM (active)
GI50 (UO-31): 2.65 µM (inactive)
GI50 (SNB-78): 0.995 µM (active)
GI50 (NCI-H226): 1.32 µM (inactive)
GI50 (NCI-H23): 0.857 µM (active)
GI50 (HOP-92): 2.48 µM (inactive)
GI50 (RPMI-8226): 0.288 µM (active)
GI50 (SK-OV-3): 1.92 µM (inactive)
GI50 (ACHN): 0.738 µM (active)
GI50 (Malme-3M): 1.54 µM (inactive)
GI50 (OVCAR-3): 1.19 µM (inactive)
GI50 (HT-29): 0.482 µM (active)
GI50 (LOX IMVI): 0.514 µM (active)

O=C1CCCCCCCCCCC(=O)N2CCOCCOCCN1Cc1cccc(n1)C2
GI50 (RXF 631): > 100 µM (inactive)
GI50 (IGROV-1): > 100 µM (inactive)
GI50 (M14): > 100 µM (inactive)
GI50 (SNB-75): 56 µM (inactive)
GI50 (RXF 393): 28.4 µM (inactive)
GI50 (786-0): > 100 µM (inactive)
GI50 (MOLT-4): 39.6 µM (inactive)
GI50 (LXFL 529): > 100 µM (inactive)
GI50 (SK-MEL-2): > 100 µM (inactive)
GI50 (DMS-114): > 100 µM (inactive)
GI50 (OVCAR-5): > 100 µM (inactive)
GI50 (SK-MEL-5): 61.5 µM (inactive)
GI50 (NCI-H522): 85.1 µM (inactive)
GI50 (HCC 2998): > 100 µM (inactive)
GI50 (SW-620): > 100 µM (inactive)
GI50 (HCT-116): > 100 µM (inactive)
GI50 (CAKI-1): > 100 µM (inactive)
GI50 (DMS-273): > 100 µM (inactive)
GI50 (SN12C): > 100 µM (inactive)
GI50 (COLO 205): > 100 µM (inactive)
GI50 (M19-MEL): > 100 µM (inactive)
GI50 (CCRF-CEM): > 100 µM (inactive)
GI50 (UACC-257): > 100 µM (inactive)
GI50 (TK-10): > 100 µM (inactive)
GI50 (A498): > 100 µM (inactive)
GI50 (HOP-62): > 100 µM (inactive)
GI50 (UACC-62): > 100 µM (inactive)
GI50 (KM12): > 100 µM (inactive)
GI50 (SNB-19): > 100 µM (inactive)
GI50 (SF-268): > 100 µM (inactive)
GI50 (DLD-1): > 100 µM (inactive)
GI50 (A549): > 100 µM (inactive)
GI50 (SF-295): 65.5 µM (inactive)
GI50 (NCI-H460): > 100 µM (inactive)
GI50 (SK-MEL-28): > 100 µM (inactive)
GI50 (OVCAR-4): > 100 µM (inactive)
GI50 (SF-539): 83.2 µM (inactive)
GI50 (HCT-15): > 100 µM
GI50 (OVCAR-8): > 100 µM (inactive)
GI50 (EKVX): > 100 µM (inactive)
GI50 (KM-20L2): > 100 µM (inactive)
GI50 (U-251): > 100 µM (inactive)
GI50 (UO-31): > 100 µM (inactive)
GI50 (SNB-78): > 100 µM (inactive)
GI50 (NCI-H226): > 100 µM (inactive)
GI50 (NCI-H23): > 100 µM (inactive)
GI50 (RPMI-8226): 36.1 µM (inactive)
GI50 (SK-OV-3): > 100 µM (inactive)
GI50 (ACHN): > 100 µM (inactive)
GI50 (Malme-3M): > 100 µM (inactive)
GI50 (OVCAR-3): 44.5 µM (inactive)
GI50 (K562): 81.1 µM (inactive)
GI50 (HT-29): > 100 µM (inactive)
GI50 (LOX IMVI): > 100 µM (inactive)
